# Legend:
# Pot1-GFP (peroxisomes) = assay: Pot1-GFP pexophagy assay; assay type: cell-based, S. cerevisiae; conditions: starvation medium; vs untreated cells
# Description: Pot1-GFP positive strains are allowed to grow till the A600 reached 0.8-1 in YPD. Peroxisome biogenesis is induced by growing these cells in oleate medium (0.1% oleate, 0.5% Tween-40, 0.25% yeast extract, 0.5% peptone, and 5 mM phosphate buffer) for 12hours. Cells are harvested, washed twice to remove traces of oleate and transferred to starvation medium without nitrogen, at inoculum density A600 3, to induce pexophagy. Cells are collected at various time intervals after pexophagy induction and processed by TCA method.
# Pot1-GFP positive strains are allowed to grow in yeast extract peptone dextrose (YPD) (2% dextrose, 2% peptone and 1% yeast extract) till the Absorbance at 600 nm reaches 0.6-0.8. Peroxisome biogenesis is induced by growing these cells in YPG medium (1% yeast extract, 2% peptone, 3% glycerol) for 12 hours.
# Cells are harvested, washed twice to remove traces of oleate and transferred to starvation medium with and without Acacetin, at. inoculum density Absorbance at 600 nm 3/ml, to induce pexophagy. Cells are collected at various time intervals after pexophagy induction and processed by TCA precipitation.
# [1] = system: mcherry-Salmonella typhimurium SL1344; assay: Live cell microscopy of Salmonella replication in HeLa cells; assay type: cell-based; conditions: GFP-LC3 transfected HeLa; vs untreated samples
# Description: GFP-LC3 transfected HeLa cells is infected with mcherry-Salmonella typhimurium SL1344 for 15 minutes (MOI-400) and is treated with gentamycin for 10 minutes. The cells are then washed with 1× PBS and changed to either only media (a) and media containing Acacetin (b) and imaged by FV10i-olympus confocal live cell imaging microscope, using 60× water immersion lens, with confocality aperature set to 1.0. Images are taken at an interval of 15 minutes. (c) The intensity of the Red channel denoting the mcherry tagged S. typhimuriumis measured using image J—Stacks T function (intensity of red channel signifies the replication of the S. typhimurium over time). The replication of Salmonella in Acacetin treated samples is restricted as compared to that of untreated samples (FIG. 15)
# [2] = system: Salmonella typhimurium SL1344; assay: Burden assay: intracellular Salmonella CFU in U1752 and HeLa cells; assay type: cell-based
# Description: U1752 cell line and HeLa cell line are infected with Salmonella typhimurium SL1344, and grown overnight in micro-aerophilic condition, at an MOI of 400 for one hour. The cells are treated with media containing Gentamycin at the concentration of 100 μg/ml for 2 hours to kill the extracellular bacteria. The cells are then treated with compounds and incubated for ?hours to 4 hours. At the end, the cells are lysed using lysis buffer (0.1% SDS, 1% Triton X-100, 1× PBS) and the intercellular Salmonella is plated and the CFU is counted. The CFU of Salmonella in the Acacetin treated cells is reduced by almost 2 fold compared to that of the untreated cells. Statistical analysis of the results is done using Graphpad prism—two tailed T test (FIG. 12)
# [3] = system: Salmonella typhimurium SL1344; assay: Growth curve of Salmonella typhimurium SL1344; assay type: cell-based; conditions: Luria Broth, 10 hours
# Description: A single colony of Salmonella typhimurium WT strain SL1344 grown overnight at 37° C. is diluted in Luria Broth media to get an O.D of 0.2. The diluted culture is used for treatments with Acacetin and Acacetin with gentamycin (100 μg/ml). The growth curve of the culture is obtained by measuring the absorbance at 600 nm using varioskan Flash Multiplate Spectrophotometer at 300 rpm and O.D taken at every 30 minutes interval for 10 hours is plotted using GraphPad Prism.
# [4] = system: mcherry Salmonella typhimurium; assay: Co-localization of GFP-LC3 / p62 with mcherry Salmonella in HeLa cells; assay type: cell-based, human
# Description: HeLa cells are transfected with GFP-LC3 using lipofectamine 3000. After 24 hours, cells are infected with Salmonella typhimurium WT strain SL1344 with an MOI of 400 for 15 minutes followed by gentamycin treatment at the concentration of 100 μg/ml for 10 minutes to kill the extracellular bacteria.
# The cells are treated with and without Acacetin and incubated for different time points (1, 2, 4 and 6 hours) at 37° C. Quantitation of LC3 co-localization with Salmonella typhimurium SL1344 is done using ImageJ-Cell counter option (FIG. 14), to check whether with compound (Acacetin) treatment more autophagy machinery is recruited towards the bacteria.
# [5] = system: HeLa cells (autophagosomes and autolysosomes); assay: Tandem RFP-GFP-LC3B (traffic light) assay in HeLa cells; assay type: cell-based, human; conditions: ptf-LC3 transfected HeLa; 2 hours
# Description: Transfection is done on a 60 mm dish with HeLa cells at 60-70% confluency. Cells were transfected with tandem RFP-GFP-MAP1LC3B construct (Addgene plasmid #21074) using 5 μl of Lipofectamine 2000 (11668-019, Invitrogen) and 2.5 μg of DNA (2:1 ratio) diluted in 100 μl of OPTI-MEM (31985-070, Invitrogen) separately. 72 hours after transfection cells are either left untreated or treatment with various concentrations of Bay11-7082 ZPCK is done for 2 hours. Starvation is induced by treating cells with Earle's balanced salt solution (EBBS). After treatment, cells are fixed in 4% paraformaldehyde and permeabilized using 0.25% Triton X-100, The coverslip is mounted with […] antifade reagent (H-1000, Vector laboratories). Imaging for HeLa cells is carried out using Delta vision microscope (Olympus 60×/1.4, Plan ApoN, excitation and emission filter Cy5, FITC and TRITC, polychroic Quad).
# For tandem RFP-EGFP-LC3 assay, sub-confluent cells are seeded in 60 mm dishes, transfected with ptf LC3 construct and allowed to express for 24 h. Later, cells are trypsinized, reseeded (10^5 cells) and allowed to attach on cover slips in a 12 well plate.
# For mammalian cell microscopy, after 2 h of treatment, coverslips are fixed using 4% paraformaldehyde (PFA) (Sigma) and permeabilized using Triton X-100 (0.2%, HiMedia). Coverslips are mounted using antifade, Vectashield (Vector laboratories). For antibody staining, coverslips are blocked in 5% BSA for 1 h, incubated in primary antibody overnight and subsequent probing with fluorescent conjugated antibody. Coverslips are mounted using antifade, Vectashield (Vector laboratories).
# Images are acquired using DeltaVisionElitewidefield microscope (API, GE) with following filters: DAPI (390/18 and 435/48), FITC (490/20 and 529/38), TRITC (542/27 and 594/45) and Cy5 (632/22 and 676/34). Images are processed using DV SoftWoRX software. Autophagosome (yellow) and autolysosome (red) are counted using Cell Counter plug-in in ImageJ software (NIH) and graphically represented as fold difference versus untreated (FIG. 3E).
# Sub-confluent HeLa and/or SH-SY5Y cells are seeded into 60 mm cell culture dishes, then transfected with ptf LC3 construct and/or siRNA and allowed to express for 48 h. Cells are trypsinized, seeded again on poly-D-lysine coated cover slips in a 12 or 24 well plates and allowed to attach. After appropriate treatments, the coverslips containing cells are processed for imaging. For immunofluorescent antibody staining, the cover slips are incubated in primary antibody at 4° C. for overnight followed by secondary antibody incubation at room temperature.
# For imaging the mammalian cells, after appropriate treatments, coverslips containing cells are fixed using 4% paraformaldehyde (PFA) (Sigma) and then permeabilized using Triton X-100 (0.2%, HiMedia). On slide, coverslips are mounted using antifade, Vectashield mounting medium (Vector laboratories). For antibody staining, coverslips are blocked using 5% BSA for 1 h at room temperature, then incubated with primary antibody at 4° C., overnight and then subsequently probed with corresponding fluorescent dye conjugated secondary antibody.
compound,measurement,setting,value
"COc1ccc(-c2cc(=O)c3c(O)cc(O)cc3o2)cc1 [Acacetin, 5,7-dihydroxy-2-(4-methoxyphenyl)chromen-4-one]",accumulation of free GFP over time (pexophagy),Pot1-GFP (peroxisomes),enhanced accumulation of free GFP
same,replication of Salmonella (red channel intensity),[1],restricted
same,functionality in Atg5 KO HeLa cell line,[2]; Atg5 KO HeLa,non-functionality
same,reduction of CFU of intracellular Salmonella vs untreated,"[2]; U1752 and HeLa cell lines, MOI 400",~2 fold
same,anti-microbial activity against Salmonella typhimurium SL1344,[3],does not have any anti-microbial activity
same,temporal recruitment of LC3 to mcherry Salmonella typhimurium,[4],increases temporal recruitment of LC3
same,temporal recruitment of p62 to mcherry Salmonella typhimurium,[4],increased temporal recruitment of p62
same,number of autolysosomes (red dots),[5],increase in the number of autolysosomes

# — patent US20180369186A1, “METHOD FOR MODULATING AUTOPHAGY AND APPLICATIONS THEREOF” (JAWAHARLAL NEHRU CENTRE FOR ADVANCED SCIENTIFIC RESEARCH, priority 2015, published 2018)
